Source: US7033598B2, “Methods and apparatus for enhanced and controlled delivery of a biologically active agent into the central nervous system of a mammal” (Intrabrain International N.V., priority 1995, dated 2006)

Conditions: transnasal iontophoresis +3.0 mA, 60 minutes; exsanguinated rabbits
Experimental: The drug was administered by two nasal electrodes that were each deep inserted in the nasal passages. The receptor electrode was positioned at the back of the animal's head. The animal was prior to delivery exsanguinated so that drug transport via the systemic compartment to the brain cannot occur.
The receptor electrode used in the experiments was saturated with a 0.9% NaCl solution. The iontophoresis apparatus used in these experiment was an Endomed 581 (Enraf Nonius, Delft, The Netherlands) iontophoresis device.
Seven of the nine animals were treated “actively” by means of transnasal iontophoresis. A medium frequency, interrupted direct current with a strength of +3.0 mA was applied to the electrodes immediately after the exsanguination was completed. The remaining two animals functioned as controls of the method and no current was supplied to their electrodes. The experiment lasted 60 minutes.

## Cl.Nc1c2c(nc3ccccc13)CCCC2.O [Tacrine hydrochloride, 9-amino-1,2,3,4-tetrahydroacridine hydrochloride monohydrate]
  migration distance under the applied electric field: 5-6 cm
